Where a name gives a salt, the structure may show the parent alone. Read-outs that look alike come from different tables or passages of the source.
Legend:
monkey eye = settings: perfused monkey eye, 15 mm Hg, 22° C.; cited from earlier work
calf eye = settings: perfused calf eye, 15 mm Hg, 22° C.; cited from earlier work
intraocular pressure [1] = assay: Intraocular pressure in monkeys a few days after perfusion; format: in vivo, cynomologous monkeys; settings: both eyes
Method: (§1) Each animal was randomly assigned one eye for the experimental and the other for its control perfusion. The animals were fasted the night before the experiment. They were anesthetized intramusclarly with Methohexital Sodium 15 mg/kg and Pentobarbital Sodium 35 mg/kg. Supplemental anesthesia as required was carried out with Pentobarbital 10 mg/kg/hour. Needles were placed through the cornea into the anterior chamber and a two-step constant pressure perfusion method was performed in order to determine aqueous humor outflow facility. The basic medium for perfusion was Dulbecco's phosphate buffered saline with added 5.5 mM glucose. A 10 microliter bolus of the experimental or control solution (that would produce the desired final concentration in the anterior chamber) was injected through a T shaped connector piece in the infusion line.

[2] = format: physicochemical
Method: (§2) Each vial of ethacrynic acid contained ethacrynate sodium powder equivalent to 50 mg of ethacrynic acid. […] The powder was diluted with the above basic medium (Dulbecco's with added glucose) to yield the desired concentration. The solution was mixed at room temperature until dissolved, and the pH was determined (always 7.2) before use; the solution was filtered with a 0.2 micron filter (Nuclepore); this produced a solution which was stable for twenty four hours.
Ethcrynic acid powder was dissolved in 3% methylcellulose to yield the desired concentration. The solution was mixed at room temperature for one hour and was stable for twenty four hours. A similar osmotically balanced control solution was prepared. 3% methylcellulose was prepared as follows: methylcellulose powder (4000 CPS) was obtained from Dow company (lot number 14728). A 3% solution was prepared from powder dissolved in distilled water using low heat for several hours. The solution was refrigerated over night to yield a transparent, viscous fluid. The pH of the solution was determined by mixing one part of the control or experimental solution with five parts of distilled water. The pH ranged between 6.2 and 6.5 for both the control and experimental solutions. The 3% methylcellulose solution was refrigerated when not in use.

intraocular pressure [3] = assay: Intraocular pressure after topical instillation in rabbits (Digilab Pneumotonometer); format: in vivo, Dutch-belted rabbits; settings: 10 mM and 3% methylcellulose, twenty four hours after instillation, fourteen rabbits, changed from 23.0, p less than 0.001, control eye 22.9 to 24.2
Method: For rabbit experiments Dutch-belted rabbits of either sex weighing 1.5 to 2 kg were used for topical studies. Each animal was randomly assigned one eye for the experimental and the other for its control solution. Intraocular pressure was measured using a Digilab Pneumotonometer. Any animals showing asymmetry of intraocular pressure greater than 2 mm were excluded form the study.
The protocol was as follows. Baseline intraocular pressure was taken in each eye using 0.5% proparacaine hydrochloride for topical anesthesia. Then a 100 microliter drop of either control solution or ethacrynic acid dissolved in 3% methylcellulose was instilled into one of the two eyes. In a half hour this was repeated. Two hours later intraocular pressure was measured in each eye. In some animals intraocular pressure was also measured five hours later and all animals had measurement of intraocular pressure the following day.
Ethcrynic acid powder was dissolved in 3% methylcellulose to yield the desired concentration. The solution was mixed at room temperature for one hour and was stable for twenty four hours. A similar osmotically balanced control solution was prepared. […] The pH of the solution was determined by mixing one part of the control or experimental solution with five parts of distilled water. […]

eye [4] = assay: Ocular changes and side effects after anterior chamber perfusion in monkeys; format: in vivo, cynomologous monkeys
Description: (§3) Ethacrynic acid (sodium salt) was used to increase aqueous humor outflow in cynomologous monkeys, as described below. Ethacrynic acid can be purchased from Merck, Sharp, and Dome, and is described in U.S. Pat. No. 3,255,241, hereby incorporated by reference. Ethacrynic acid has the chemical formula [2,3-dichloro-4-(2-methylene-1-oxobutyl) phenoxy] acetic acid. Any suitable analogs described in U.S. Pat. No. 3,255,241 can also be used as described herein.
as §1, §2
During perfusion experiments, a 10 microliter bolus injection was made using a Hamilton syringe. Since the monkey anterior chamber is approximately 200 microliters, our calculations were as follows. To achieve a final concentration of 0.5 mM ethacrynic acid, 10 microliters of 10 mM ethacrynic acid was infused.
Experiments were carried out using final ethacrynic acid concentrations in the aqueous humor of 0.1 mM to 0.5 mM. There were at least three animals and separate experiments carried out for each of the concentrations […], 0.25 mM, and […].

eye [5] = assay: Ocular side effects after topical instillation in rabbits; format: in vivo, Dutch-belted rabbits
aqueous humor outflow = assay: Two-step constant pressure perfusion, aqueous humor outflow facility in monkeys; format: in vivo, cynomologous monkeys
Description: as §3
Each animal was randomly assigned one eye for the experimental and the other for its control perfusion. The animals were fasted the night before the experiment. They were anesthetized intramusclarly with Methohexital Sodium 15 mg/kg and Pentobarbital Sodium 35 mg/kg. Supplemental anesthesia as required was carried out with Pentobarbital 10 mg/kg/hour. Needles were placed through the cornea into the anterior chamber and a two-step constant pressure perfusion method was performed in order to determine aqueous humor outflow facility. […]
Each vial of ethacrynic acid contained ethacrynate sodium powder equivalent to 50 mg of ethacrynic acid. […] The solution was mixed at room temperature until dissolved, and the pH was determined (always 7.2) before use; the solution was filtered with a 0.2 micron filter (Nuclepore); this produced a solution which was stable for twenty four hours. […]

Water solubility = format: physicochemical; settings: volume not given

Structure (SMILES): CCN1C(=O)C=CC1=O [NEM, N-ethylmaleimide]
- effect on outflow in the monkey eye (monkey eye): increase in outflow
- dosage producing a significant increase in the facility of outflow (calf eye): ≥ 4.7 mM

Structure (SMILES): C=C(CC)C(=O)c1ccc(OCC(=O)O)c(Cl)c1Cl [ethacrynic acid, [2,3-dichloro-4-(2-methylene-1-oxobutyl)phenoxy] acetic acid]
- intraocular pressure (intraocular pressure [1]): symmetrical and normal in both eyes
- stability of solution [2]: twenty four
- stability of solution ([2]; pH 7.2): twenty four
- intraocular pressure in treated eye, 24 h (intraocular pressure [3]): 20.0 mmHg
- pupil dilation in treated eye (eye [4]; dosages above 0.25 mM): some of the animals developed a dilated pupil
- adhesions of the iris to the peripheral cornea (eye [4]; experimental and control eyes, believed to result from perfusion technique): A small number of animals in both the experimental and control eyes developed adhesions of the iris to the peripheral cornea
- chronic corneal edema, opacities or cataract formation (eye [4]; monkey perfusion): no chronic corneal edema or opacities or cataract formation
- corneal or crystalline lens changes (eye [4]; monkey perfusion): no apparent corneal or crystalline lens changes
- conjunctival injection (eye [5]; 5 mM, topical): slight conjunctival injection
- conjunctival injection and irritation (eye [5]; 10 mM, topical): moderate conjunctival injection and signs of irritation
- reversibility of corneal toxicity and inflammation (eye [5]; higher concentrations (above 10 mM)): resolved without apparent seguelae
- corneal toxicity and anterior chamber inflammation (eye [5]; higher concentrations (above 10 mM), for several days): signs of corneal toxicity (corneal edema) and anterior chamber inflammation
- outflow facility response (aqueous humor outflow; 0.25 mM final concentration): approximately half the animals perfused responded with a substantial increase in outflow facility
- outflow facility effect (aqueous humor outflow; lower dosages (below 0.25 mM; 0.1 mM tested)): no effect

Structure (SMILES): C=C(CC)C(=O)c1ccc(OCC(=O)O)c(Cl)c1Cl [sodium salt of ethacrynic acid]
- solubility in water (Water solubility): about 0.04 g

Reference: US4757089A, “Increasing aqueous humor outflow” (Massachusetts Eye and Ear Infirmary, priority 1986, dated 1988)
